Consider four molecules from ChEMBL document CHEMBL1201862, “PubChem BioAssay data set” (2004).

Test systems include A498; ACHN; CAKI-1; CCRF-CEM; COLO 205; EKVX; HCT-116; HOP-62; IGROV-1; KM12; MOLT-4; NCI-H460; NCI-H522; RPMI-8226; RXF 393; SF-268; SN12C; UACC-257; UACC-62; LOX IMVI.
Common to all, as to assay: NCI anticancer screen, dose series, 48 h

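Exposure lasted 48 hours, with cells grown in 96-well plates and compounds tested at five concentrations. GI50 = concentration required for 50% inhibition of growth.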 Calls of active or inactive are those of the source. No stated cut-off is given here; in the data, active = GI50 up to about 1.1 µM and inactive = higher. Where only a bound is given, the exact number is not on record here.

As for `Nc1nc(CCC(=O)Nc2cccc(C(F)(F)F)c2)cc(-c2ccc3ccccc3c2)n1`, the GI50 with A498, in the assay on ACHN, in the assay on CAKI-1, with CCRF-CEM, with COLO 205 and in the assay on EKVX was > 100 µM (inactive) in each case. The GI50 in the assay with HCT-116, in the assay on HOP-62, in the assay on IGROV-1, in the assay with KM12, in the assay on MOLT-4 and in the assay on NCI-H460 was > 100 µM (inactive) each time. The GI50 with NCI-H522, in the assay with RPMI-8226, in the assay with RXF 393, in the assay on SF-268, in the assay on SN12C and with UACC-257 was > 100 µM (inactive) in each case. Besides, the GI50 in the assay with UACC-62 is > 100 µM (inactive).

Regarding `ClCc1ccc2ccc3ccc(CCl)nc3c2n1`, the GI50 in the assay with A498 is 10.6 µM (inactive); with CCRF-CEM it was 1.8 µM (inactive); in the assay with COLO 205, 1.71 µM (inactive); in the assay with EKVX it was 15.6 µM (inactive); with HCT-116, 1.69 µM (inactive); with HOP-62, 4.29 µM (inactive). The GI50 is 1.7 µM (inactive) in the assay with IGROV-1; 0.9 µM (active) with KM12; 1.56 µM (inactive) in the assay on LOX IMVI; 1.73 µM (inactive) in the assay with MOLT-4; 4.62 µM (inactive) with NCI-H460; 1.76 µM (inactive) with NCI-H522. The GI50 in the assay on RPMI-8226 was 1.46 µM (inactive); in the assay on RXF 393, 1.72 µM (inactive); in the assay on SF-268 it was 4.19 µM (inactive); in the assay on SN12C it was 2.36 µM (inactive); in the assay with UACC-257, 1.29 µM (inactive); in the assay with UACC-62, 1.34 µM (inactive).

Turning to `CC1CC/C(=C\c2ccc(N(C)C)cc2)C2=C1C(c1ccc(N(C)C)cc1)NC(=S)N2` (configuration not stated), the GI50 in the assay with A498, in the assay on ACHN, in the assay on CAKI-1, in the assay on CCRF-CEM, in the assay with COLO 205 and with EKVX was > 100 µM (inactive) each time. The GI50 in the assay with HCT-116, with IGROV-1, in the assay on KM12, in the assay with LOX IMVI, in the assay on MOLT-4 and in the assay on RPMI-8226 was > 100 µM (inactive) throughout. For the same molecule, the GI50 in the assay on RXF 393, in the assay on SF-268, in the assay with SN12C, in the assay with UACC-257 and in the assay on UACC-62 was > 100 µM (inactive) throughout.

Regarding `COC1(OC)CCC2C1C1CCC(OC)(OC)C21` (configuration not stated), the GI50 in the assay on A498, in the assay on ACHN, in the assay on CAKI-1, in the assay with CCRF-CEM, with COLO 205 and with EKVX was > 50 µM (inactive) in each case. The GI50 in the assay with HCT-116, in the assay with HOP-62, in the assay on IGROV-1, in the assay on KM12, in the assay on MOLT-4 and in the assay with NCI-H522 was > 50 µM (inactive) in each case. The GI50 with RPMI-8226, with RXF 393, in the assay with SF-268, with SN12C, in the assay on UACC-257 and with UACC-62 was > 50 µM (inactive) in each case.
